The subject of experiment [1] is Porcine primary trabecular meshwork (PTM) cells. Nature of the experiment: Actin stress fibers (phalloidin) and focal adhesion (vinculin) immunofluorescence staining in PTM cells. The format is cell-based. The procedure: (§1) Porcine primary trabecular meshwork (PTM) and ciliary muscle cells (PCM) were cultured and treated with lovastatin or compactin at concentrations of 25 μM and 50 μM. Effects on actin stress fibers (phalloidin staining) and focal adhesion formation (vinculin) were evaluated by immunofluorescence staining. Urea/glycerol polyacrylamide gel electrophoresis and Western blot analysis were utilized to investigate the effects of statins on myosin light chain (MLC) phosphorylation. Changes in cell shape were recorded using the phase contrast microscope. A constant flow organ culture perfusion system was used to measure outflow facility in perfused porcine eye anterior segments.

Experiment [2] has the same test system. Nature of the experiment: Cell shape by phase contrast microscopy in PTM cells. The format is cell-based. The procedure: as §1
The test system of experiment [3] is myosin light chain (MLC) phosphorylation. Nature of the experiment: MLC phosphorylation by urea/glycerol PAGE and Western blot in PTM cells. Type of experiment: cell-based, porcine. The protocol:
as §1
For orientation: In western blotting, separated proteins are transferred to a membrane and probed.

Experiment [4] concerns perfused porcine eye anterior segments. Nature of the experiment: Constant flow organ culture perfusion of porcine eye anterior segments. The protocol:
as §1

[5] abbreviates: PTM cells, within 24 hours of drug administration.

Regarding `CC(C)=CCC/C(C)=C/CC/C(C)=C/CC/C(C)=C/COP(=O)(O)OP(=O)(O)O` [geranylgeranyl pyrophosphate], the “effect on lovastatin-induced changes in cell shape and cytoskeletal organization” value in experiment [1] (supplementation of cell culture media containing lovastatin) is “completely reversed”.

Regarding `CC[C@H](C)C(=O)O[C@H]1C[C@@H](C)C=C2C=C[C@H](C)[C@H](CC[C@@H]3C[C@@H](O)CC(=O)O3)[C@H]21` [lovastatin], the “changes in cell shape” value in experiment [2] (25 μM and 50 μM) is listed as “dramatic changes in cell shape”. In addition, the “reversibility of morphological changes” value in experiment [2] (upon drug withdrawal) is on record as “reversible upon drug withdrawal”. In experiment [1] (setting [5]), the “effect on actin stress fibers” value is recorded as “actin depolymerization” and the “effect on focal adhesions” value is “loss of focal adhesions”. In experiment [3], the MLC phosphorylation entry is listed as “marked reduction”. Also, the “drop in intraocular pressure” value in experiment [4] (100 μM, at 72 hours, control eyes 22% reduction, ongoing study) worked out at 48%. The “ability to decrease IOP” value in experiment [4] (organ culture perfusion model) was “ability to decrease IOP”.

(Values after patent US8415364B2, “Method of preventing or treating glaucoma” (Duke University, priority 2003, dated 2013).)
